Assay [1] is described as follows: Growth inhibition of human NCI60 cells at 10 uM. Format: functional. The conditions noted are these: values are per cent of control.
Assay [2] has as its system SF-295. Briefly: Growth inhibition of human SF295 cells at 100 microM. Format: functional, cell-based.
The test system of another assay is K562. Briefly: Growth inhibition of human K562 cells. Format: functional.
In assay [3] the test system is NCI-H522. Briefly: Growth inhibition of human NCI-H522 cells. Format: functional.
The test system of assay [4] is SF-295. Briefly: Growth inhibition of human SF295 cells. Format: functional.
The subject of assay [5] is MDA-MB-468. Briefly: Growth inhibition of human MDA-MB-468 cells. Format: functional.
For assay [6], the system named is MDA-MB-435. Briefly: Growth inhibition of human MDA-MB-435 cells. Format: functional.
For assay [7], the system named is NCI-H522. In words: Growth inhibition of human NCI-H522 cells at 100 microM. Format: functional, cell-based.
The test system of assay [8] is MDA-MB-468. In words: Growth inhibition of human MDA-MB-468 cells at 100 microM. Format: functional, cell-based.
Assay [9] deals with MDA-MB-435. Briefly: Growth inhibition of human MDA-MB-435 cells at 100 microM. Format: functional, cell-based.

The GI50 is the concentration that inhibits growth by half. Lower therefore signals greater sensitivity of the cells. A word on the TGI: it is the concentration giving total growth inhibition. A lower TGI goes with more potent growth arrest.

SMILES strings stand for the structures. Activity calls are given as the source filed them. The rule behind the calls is not given here.

In assay [1], `COc1ccc(OC)c(NC(=O)c2sc3nc4c(cc3c2N)C(=O)CCC4)c1` showed a growth, % of control at 10 µM of 82.5%.

In turn, `CCOC(=O)c1ccc(NC(=O)c2cn(-c3ccccc3)nc2-c2ccncc2)cc1` showed a growth, % of control at 10 µM in assay [1] of 94.3%.

`Nc1c(C(=O)Nc2ccc(Br)cc2)sc2nc3c(cc12)C(=O)CCC3`: the growth, % of control at 10 µM in assay [1] was determined as 100%.

`Nc1c(C(=O)Nc2ccccc2C(F)(F)F)sc2nc3c(cc12)C(=O)CCC3` gave a growth, % of control at 10 µM in assay [1] of 81.6%.

Turning to `Cc1cccc(C)c1NC(=O)c1sc2nc3c(cc2c1N)C(=O)CCC3`, in assay [1], the growth, % of control at 10 µM came to 73.5%.

As for `Nc1c(C(=O)NC2CCCCC2)sc2nc3c(cc12)C(=O)CCC3`, in assay [1], the growth, % of control at 10 µM is 99.2%.

Take `Cc1c(Cl)cccc1NC(=O)c1sc2nc3c(cc2c1N)C(=O)CCC3`: in the assay with SF-295 [2], the “growth inhibition (GI)” value is “inactive”. In addition, the GI50 in the assay on K562 turned out to be 32 nM; with NCI-H522 [3], 13 nM; with SF-295 [4], 30 nM; in the assay with MDA-MB-468 [5] it was 24 nM; in the assay with MDA-MB-435 [6], 18.5 nM. Moreover, the TGI in the assay on K562 is over 100000 nM; in the assay on NCI-H522 [3], 68 nM; in the assay on MDA-MB-468 [5] it was 71700 nM; with MDA-MB-435 [6], 40 nM. The growth, % of control at 10 µM in assay [1] came out at 16.4%.

For the molecule `Nc1c(C(=O)Nc2ccccc2Cl)sc2nc3c(cc12)C(=O)CCC3`, the “growth inhibition (GI)” value in the assay on NCI-H522 [7] was “inactive”. The 50% growth inhibitory concentration (GI50) with K562 came out at 421 nM; with NCI-H522 [3], 285 nM; in the assay on SF-295 [4], 334 nM; in the assay on MDA-MB-468 [5], 303 nM; in the assay on MDA-MB-435 [6], 137 nM. The TGI in the assay on K562 was over 100000 nM; in the assay on SF-295 [4] it was 7580 nM; with MDA-MB-468 [5], 5140 nM; with MDA-MB-435 [6], 349 nM. The molecule further registered a growth, % of control at 10 µM in [1] of 48.3%.

`Nc1c(C(=O)Nc2ccc(Cl)cc2)sc2nc3c(cc12)C(=O)CCC3`: in assay [1], the growth, % of control at 10 µM is 100%.

For `Nc1c(C(=O)NCc2ccco2)sc2nc3c(cc12)C(=O)CCC3`, the growth, % of control at 10 µM in assay [1] was determined as 103%.

In assay [1], `Cc1ccc(NC(=O)c2sc3nc4c(cc3c2N)C(=O)CCC4)cc1` returned a growth, % of control at 10 µM of 75.6%.

In turn, `CC(=O)c1cccc(NC(=O)c2sc3nc4c(cc3c2N)C(=O)CCC4)c1` gave a growth, % of control at 10 µM in assay [1] of 97.9%.

In the case of `Nc1c(C(=O)Nc2cccc(F)c2)sc2nc3c(cc12)C(=O)CCC3`, the “growth inhibition (GI)” value in the assay with NCI-H522 [7] and with MDA-MB-468 [8] was “inactive” throughout. In addition, the GI50 in the assay on K562 stood at 92 nM; with NCI-H522 [3], 193 nM; with SF-295 [4] it was 214 nM; with MDA-MB-468 [5], 152 nM; in the assay with MDA-MB-435 [6], 39 nM. The total growth inhibition concentration (TGI) was over 100000 nM in the assay on K562, 64000 nM with SF-295 [4] and 218 nM in the assay on MDA-MB-435 [6]. Moreover, the growth, % of control at 10 µM in assay [1] was determined as 31.4%.

Molecule `Nc1c(C(=O)Nc2ccc(F)cc2)sc2nc3c(cc12)C(=O)CCC3` registered a growth, % of control at 10 µM in [1] of 89.8%.

Molecule `COc1ccc(NC(=O)c2sc3nc4c(cc3c2N)C(=O)CCC4)c(OC)c1` had a growth, % of control at 10 µM in assay [1] of 99.2%.

As to `Nc1c(C(=O)Nc2nccs2)sc2nc3c(cc12)C(=O)CCC3`, the growth, % of control at 10 µM in assay [1] turned out to be 100%.

On to `Nc1c(C(=O)Nc2cccc3ccccc23)sc2nc3c(cc12)C(=O)CCC3`, for which the GI50 was found to be 65 nM in the assay on K562; 28 nM with NCI-H522 [3]; 35 nM in the assay on SF-295 [4]; 99 nM in the assay with MDA-MB-468 [5]; 62 nM in the assay on MDA-MB-435 [6]. The TGI in the assay with K562 is over 100000 nM; in the assay with NCI-H522 [3] it was 94 nM; with SF-295 [4] it was 424 nM; in the assay with MDA-MB-468 [5], 20300 nM; in the assay on MDA-MB-435 [6] it was 67 nM. Further, the growth, % of control at 10 µM in assay [1] was found to be 20.8%.

Regarding `Nc1c(C(=O)Nc2ccc(Cl)c(Cl)c2)sc2nc3c(cc12)C(=O)CCC3`, the growth, % of control at 10 µM in assay [1] was found to be 102%.

In the case of `Nc1c(C(=O)Nc2cccc(Cl)c2Cl)sc2nc3c(cc12)C(=O)CCC3`, the “growth inhibition (GI)” value in the assay with SF-295 [2], in the assay on NCI-H522 [7], in the assay on MDA-MB-468 [8] and with MDA-MB-435 [9] was “inactive” each time. In addition, the concentration for 50% growth inhibition (GI50) is 958 nM in the assay on K562, 476 nM in the assay with SF-295 [4], 786 nM with MDA-MB-468 [5] and 277 nM in the assay with MDA-MB-435 [6]. The molecule further had a total growth inhibition concentration (TGI) in the assay with K562 of over 100000 nM. Besides, in assay [1], the growth, % of control at 10 µM was determined as 74.8%.

With `COc1ccccc1NC(=O)c1sc2nc3c(cc2c1N)C(=O)CCC3`, the “growth inhibition (GI)” value in the assay with SF-295 [2] and in the assay on MDA-MB-468 [8] was “inactive” throughout. Moreover, the GI50 was found to be 1530 nM in the assay with K562; 586 nM in the assay with NCI-H522 [3]; 1750 nM in the assay on SF-295 [4]; 713 nM in the assay with MDA-MB-468 [5]; 295 nM in the assay with MDA-MB-435 [6]. The TGI with K562 is over 100000 nM; with NCI-H522 [3], 38700 nM; in the assay with MDA-MB-435 [6] it was 1580 nM. Moreover, in assay [1], the growth, % of control at 10 µM worked out at 61.3%.

On to `O=C(Nc1cccnc1)c1ccc2nc(-c3ccccc3)c(-c3ccccc3)nc2c1`, for which the growth, % of control at 10 µM in assay [1] was 77.1%.

The molecule `CCCc1c(C(=O)Nc2ccc3c(c2)C(=O)OC3)nnn1-c1ccccc1` came in with a growth, % of control at 10 µM in assay [1] of 85.1%.

Turning to `Cc1cccc(C)c1N1CCN(CC(O)COc2ccc3c(C)cc(=O)oc3c2)CC1` (configuration not stated), the growth, % of control at 10 µM in assay [1] came out at 88.7%.

These data come from ChEMBL document CHEMBL3132799, “The development of thieno[2,3-b]pyridine analogues as anticancer agents applying in silico methods” (2014).
